How the values were obtained:
MAGL = MAGL (Mus musculus (Mouse), UniProt O35678); experiment: In vitro competitive activity-based protein profiling, MAGL (mouse); type: biochemical; conditions: for inhibition at 1 µM: read-out: MAGL % inh. 1 μM (mouse)
Method in brief: (§1)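 Residual MAGL and FAAH activity quantified from fluorescent gel bands after SDS-PAGE. Before that, FP-Rh or HT-01 probe (50 μM stock) labelled for 30 min at 37 °C, following 30 min inhibitor preincubation. Mouse assays used brain membrane fraction or cell lysates, human used prefrontal cortex or cell membranes, all at 1.0 mg/mL protein.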

FAAH = FAAH (Mus musculus (Mouse), UniProt O08914); experiment: In vitro competitive activity-based protein profiling, FAAH (mouse); type: biochemical; conditions: for inhibition at 1 µM: read-out: FAAH % inh. 1 μM (mouse)
Method in brief: as §1

Chain of MAGL (O35678 whole entry): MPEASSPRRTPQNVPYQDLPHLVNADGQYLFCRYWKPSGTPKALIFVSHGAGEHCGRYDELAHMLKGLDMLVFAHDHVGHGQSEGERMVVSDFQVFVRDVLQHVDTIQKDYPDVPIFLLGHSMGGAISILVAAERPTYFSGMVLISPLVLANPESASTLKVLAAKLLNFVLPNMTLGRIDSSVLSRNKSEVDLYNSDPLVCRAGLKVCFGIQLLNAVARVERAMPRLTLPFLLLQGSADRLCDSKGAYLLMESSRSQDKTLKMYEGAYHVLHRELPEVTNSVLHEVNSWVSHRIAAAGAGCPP
Chain of FAAH (O08914 whole entry): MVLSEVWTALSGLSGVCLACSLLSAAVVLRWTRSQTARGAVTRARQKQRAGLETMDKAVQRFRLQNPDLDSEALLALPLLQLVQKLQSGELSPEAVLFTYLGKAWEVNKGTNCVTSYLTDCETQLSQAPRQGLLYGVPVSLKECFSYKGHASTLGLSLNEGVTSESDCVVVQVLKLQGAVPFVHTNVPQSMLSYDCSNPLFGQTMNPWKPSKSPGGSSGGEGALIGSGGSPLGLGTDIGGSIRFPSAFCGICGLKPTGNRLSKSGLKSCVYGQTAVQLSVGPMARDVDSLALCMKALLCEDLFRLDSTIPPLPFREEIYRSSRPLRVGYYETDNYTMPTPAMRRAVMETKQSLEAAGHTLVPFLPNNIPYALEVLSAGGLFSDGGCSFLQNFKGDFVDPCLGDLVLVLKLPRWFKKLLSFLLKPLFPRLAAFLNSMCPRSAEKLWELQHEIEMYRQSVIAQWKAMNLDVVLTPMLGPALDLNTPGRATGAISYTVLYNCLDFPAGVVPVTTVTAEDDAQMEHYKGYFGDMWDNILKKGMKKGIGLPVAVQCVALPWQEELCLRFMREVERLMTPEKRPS

Row | inhibition at 1 µM (MAGL) | inhibition at 1 µM (FAAH) | IC50 (MAGL) | IC50 (FAAH) | SMILES
1 | ≥ 75% | ≥ 75% | – | – | CC(=O)N(C)c1cnn(C(=O)N2CC3CN(Cc4ccc(N5CCOCC5)c(Cl)c4)CC3C2)c1 (stereo not shown) [Example 95, N-(1-(5-(3-chloro-4-morpholinobenzyl)octahydropyrrolo[3,4-c]pyrrole-2-carbonyl)-1H-pyrazol-4-yl)-N-methylacetamide]
2 | ≥ 75% | ≥ 75% | – | – | CC(=O)N(C)c1cnn(C(=O)N2CCC3(CC2)CN(Cc2cccc(F)c2)C3)c1 [Example 35, N-(1-(2-(3-fluorobenzyl)-2,7-diazaspiro[3.5]nonane-7-carbonyl)-1H-pyrazol-4-yl)-N-methylacetamide]
3 | ≥ 75% | ≥ 75% | ≤ 100 nM | 100 to 1000 nM | CC(=O)N(C)c1cnn(C(=O)N2CCC3(CC2)CN(Cc2cccc(C(F)(F)F)c2)C3)c1 [Example 38, N-methyl-N-(1-(2-(3-(trifluoromethyl)benzyl)-2,7-diazaspiro[3.5]nonane-7-carbonyl)-1H-pyrazol-4-yl)acetamide]
4 | 50 to 75% | 0 to 25% | – | – | CC(=O)N(C)c1cnn(C(=O)N2CCN(Cc3ccc(N4CCOCC4)cc3)CC2)c1 [Example 200, N-methyl-N-(1-(4-(4-morpholinobenzyl)piperazine-1-carbonyl)-1H-pyrazol-4-yl)acetamide]
5 | ≥ 75% | ≥ 75% | – | – | CC(=O)N(C)c1cnn(C(=O)N2CCC3(CC2)CN(Cc2cccc(C)c2)C3)c1 [Example 36, N-methyl-N-(1-(2-(3-methylbenzyl)-2,7-diazaspiro[3.5]nonane-7-carbonyl)-1H-pyrazol-4-yl)acetamide]
6 | ≥ 75% | ≥ 75% | 100 to 1000 nM | 100 to 1000 nM | CC(=O)N(C)c1cnn(C(=O)N2CCN(Cc3ccccc3C)CC2)c1 [Example 212, N-methyl-N-(1-(4-(2-methylbenzyl)piperazine-1-carbonyl)-1H-pyrazol-4-yl)acetamide]

Second part, the compound before the results:

Row | SMILES | inhibition at 1 µM (MAGL) | inhibition at 1 µM (FAAH) | IC50 (MAGL) | IC50 (FAAH)
7 | CS(=O)(=O)Nc1cnn(C(=O)N2CCC3(CCN(Cc4cc(Cl)ccc4C(F)(F)F)C3)C2)c1 (stereo not shown) [Example 284, N-[1-[(7-[[5-chloro-2-(trifluoromethyl)phenyl]methyl]-2,7-diazaspiro[4.4]nonan-2-yl)carbonyl]-1H-pyrazol-4-yl]methanesulfonamide] | 25 to 50% | ≥ 75% | – | –
8 | CS(=O)(=O)Nc1cnn(C(=O)N2CCC3(CCN(Cc4cc(Cl)ccc4C(F)(F)F)C3)CC2)c1 [Example 276, N-(1-(2-(5-chloro-2-(trifluoromethyl)benzyl)-2,8-diazaspiro[4.5]decane-8-carbonyl)-1H-pyrazol-4-yl)methanesulfonamide] | ≥ 75% | ≥ 75% | – | –
9 | CC(=O)N(C)c1cnn(C(=O)N2CCC3(CCN(Cc4ccc(-c5cnccn5)cc4Cl)C3)C2)c1 (stereo not shown) [Example 264, N-(1-(7-(2-chloro-4-(pyrazin-2-yl)benzyl)-2,7-diazaspiro[4.4]nonane-2-carbonyl)-1H-pyrazol-4-yl)-N-methylacetamide] | ≥ 75% | ≥ 75% | – | –
10 | CS(=O)(=O)Nc1cnn(C(=O)N2CCC3(CC2)CN(Cc2cc(Cl)ccc2C(F)(F)F)C3)c1 [Example 277, N-(1-(2-(5-chloro-2-(trifluoromethyl)benzyl)-2,7-diazaspiro[3.5]nonane-7-carbonyl)-1H-pyrazol-4-yl)methanesulfonamide] | ≥ 75% | ≥ 75% | ≤ 100 nM | ≤ 100 nM
11 | CC(=O)N(C)c1cnn(C(=O)N2CC3CN(Cc4ccc(N5C6CCC5COC6)cc4C(F)(F)F)CC3C2)c1 (stereo not shown) [Example 102, N-(1-(5-(4-(3-oxa-8-azabicyclo[3.2.1]octan-8-yl)-2-(trifluoromethyl)benzyl)octahydropyrrolo[3,4-c]pyrrole-2-carbonyl)-1H-pyrazol-4-yl)-N-methylacetamide] | ≥ 75% | ≥ 75% | – | –
